The values below come from ChEMBL document CHEMBL4368919, “Identification of the Metabolic Profile of the α-Tubulin-Binding Natural Product (-)-Pironetin” (J Med Chem, 2019).

Molecules are shown by their SMILES. Some results are limits rather than exact numbers.

Data set [1] concerns the target T1, Tubulin alpha (Homo sapiens) (UniProt P0DPH7+P68366+Q71U36+P68363+Q9BQE3+Q6PEY2+A6NHL2+Q9NY65). Briefly: Inhibition of tubulin alpha in human A2780 cells assessed as cell growth inhibition after 48 hrs by MTT assay. The data set is classed as cell-based.
Data set [2] can be described thus: Drug level in human liver microsomes treated with pironetin assessed as compound formation after 30 mins by LC-MS/MS analysis. The data set is classed as ADME, Microsome. The following applies: 0.5 h.
The test system of data set [3] is 3Y1 cell line. Briefly: Cell cycle arrest in rat 3Y1 cells assessed as accumulation at G2/M phase after 24 hrs by propidium iodide-staining based flow cytometry relative to (-)-Pironetin. The data set is classed as ADME. The note with it: 3y1, 24 h. (A flow cytometer gives signals particle by particle.)
Data set [4] deals with T1, Tubulin alpha (Homo sapiens). Briefly: Inhibition of tubulin alpha in human A2780CP cells assessed as cell growth inhibition after 48 hrs by MTT assay. The data set is classed as cell-based. (Tetrazolium assays rely on reduction of a dye to a coloured formazan, in cell work by metabolically active cells.)
A short description of data set [5]: Inhibition of tubulin alpha in human A2780 cells assessed as reduction in cell growth.
Data set [6] can be described thus: Protein binding in rat plasma. In kind it is ADME, cell-free. The following applies: read-out: PPB (converted).
Data set [7] is described as follows: Stability in rat serum assessed as compound remaining after 24 hrs. The data set is classed as ADME, cell-free. The following applies: read-out: Stability.
Data set [8] in a line: Stability in mouse serum assessed as compound remaining at 1.30 ml after 24 hrs by HPLC analysis. In kind it is ADME, cell-free. The following applies: read-out: Stability.
Data set [9] deals with Cytochrome P450 2C9 (Homo sapiens, UniProt P11712). As to the kind of experiment: Inhibition of CYP2C9 (unknown origin) using tolbutamide as substrate. The data set is classed as ADME.
Data set [10] can be described thus: Stability in human serum assessed as compound remaining at 1.10 mg after 24 hrs by HPLC analysis. The data set is classed as ADME, cell-free. The following applies: read-out: Stability.
Data set [11] concerns the target T2, Cytochrome P450 3A4 (Homo sapiens, UniProt P08684). Briefly: Inhibition of CYP3A4 (unknown origin) using midazolam as substrate. In kind it is ADME.
Data set [12] in a line: Protein binding in human plasma. In kind it is ADME, cell-free. The note with it: read-out: PPB (converted).
Data set [13] in a line: Half life in rat liver microsomes in presence of NADPH regeneration system by LC-MS/MS analysis. In kind it is ADME, Microsome. In general terms: Liver microsomes are a subcellular fraction often used to study metabolism.
For data set [14], the target named is T2, Cytochrome P450 3A4. As to the kind of experiment: Inhibition of CYP3A4 (unknown origin) using testosterone as substrate. In kind it is ADME.
The nature of data set [15]: Half life in mouse liver microsomes in presence of NADPH regeneration system by LC-MS/MS analysis. The data set is classed as ADME, Microsome.
A short description of data set [16]: Half life in human liver microsomes in presence of NADPH regeneration system by LC-MS/MS analysis. In kind it is ADME, Microsome.
The target in data set [17] is Cytochrome P450 2D6 (Homo sapiens, UniProt P10635). Briefly: Inhibition of CYP2D6 (unknown origin) using dextromethorphan as substrate. In kind it is ADME.
The nature of data set [18]: Protein binding in mouse plasma. In kind it is ADME, cell-free. The note with it: read-out: PPB (converted).

T2 sequence (P08684 whole entry): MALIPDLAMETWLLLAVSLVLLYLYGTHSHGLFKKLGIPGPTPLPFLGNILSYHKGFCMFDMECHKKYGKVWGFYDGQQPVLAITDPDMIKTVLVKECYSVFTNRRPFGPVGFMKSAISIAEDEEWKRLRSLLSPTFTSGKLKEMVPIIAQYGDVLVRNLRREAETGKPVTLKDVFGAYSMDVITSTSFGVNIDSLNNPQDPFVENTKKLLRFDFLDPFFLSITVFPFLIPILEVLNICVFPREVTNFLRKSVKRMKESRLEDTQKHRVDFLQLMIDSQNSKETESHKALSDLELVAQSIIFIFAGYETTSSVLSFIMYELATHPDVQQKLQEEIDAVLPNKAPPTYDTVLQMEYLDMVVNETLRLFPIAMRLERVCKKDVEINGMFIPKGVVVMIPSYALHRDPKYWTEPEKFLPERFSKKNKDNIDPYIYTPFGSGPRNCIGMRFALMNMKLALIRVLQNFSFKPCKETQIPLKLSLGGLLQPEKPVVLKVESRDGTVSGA
Sequence of Cytochrome P450 2C9 (P11712 whole entry): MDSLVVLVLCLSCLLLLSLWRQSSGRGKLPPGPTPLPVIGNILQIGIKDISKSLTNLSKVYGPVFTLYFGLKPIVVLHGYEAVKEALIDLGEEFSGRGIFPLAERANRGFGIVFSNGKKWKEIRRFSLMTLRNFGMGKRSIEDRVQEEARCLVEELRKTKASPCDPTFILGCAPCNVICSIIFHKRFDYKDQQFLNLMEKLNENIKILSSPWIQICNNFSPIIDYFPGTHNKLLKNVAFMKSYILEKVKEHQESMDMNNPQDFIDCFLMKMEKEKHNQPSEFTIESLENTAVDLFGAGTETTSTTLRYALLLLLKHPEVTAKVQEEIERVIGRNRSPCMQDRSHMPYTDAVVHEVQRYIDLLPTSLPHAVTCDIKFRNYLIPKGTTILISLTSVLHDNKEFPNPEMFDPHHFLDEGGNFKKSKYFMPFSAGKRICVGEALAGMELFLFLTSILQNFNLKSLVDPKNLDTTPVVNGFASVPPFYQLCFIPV
Sequence of Cytochrome P450 2D6 (P10635 whole entry): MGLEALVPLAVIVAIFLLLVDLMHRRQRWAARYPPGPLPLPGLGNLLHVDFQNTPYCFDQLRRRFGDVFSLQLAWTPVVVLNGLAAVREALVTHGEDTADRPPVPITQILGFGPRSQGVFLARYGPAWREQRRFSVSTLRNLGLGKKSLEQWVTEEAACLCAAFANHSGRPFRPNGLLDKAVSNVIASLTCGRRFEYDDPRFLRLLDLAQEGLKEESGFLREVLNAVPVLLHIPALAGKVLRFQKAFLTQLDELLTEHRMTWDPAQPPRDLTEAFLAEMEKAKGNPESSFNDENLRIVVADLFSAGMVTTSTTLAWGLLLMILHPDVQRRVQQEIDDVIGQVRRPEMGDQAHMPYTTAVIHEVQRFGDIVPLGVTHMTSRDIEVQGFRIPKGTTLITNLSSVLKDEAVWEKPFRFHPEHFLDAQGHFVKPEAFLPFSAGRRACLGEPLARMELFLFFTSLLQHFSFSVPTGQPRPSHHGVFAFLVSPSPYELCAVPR

As usually defined, the GI50 is the concentration at which growth is held to half of that of the control. For the compound `C/C=C/C[C@H](C)[C@@H](O)[C@@H](C)[C@H](O)C[C@H]1OC(=O)C=C[C@H]1CC`, the GI50 in [1] was determined as 0.0296 µM; in data set [4], 0.0823 µM. Further, the Drug uptake entry in [2] is recorded as “Active”. Moreover, the Activity result in data set [3] is “Toxic”.
By IC50 is commonly meant the concentration needed to halve the response being measured. Consider `CC[C@@H]1C=CC(=O)O[C@@H]1C[C@@H](O)[C@H](C)[C@H](OC)[C@@H](C)C[C@@H]1O[C@H]1C` (relative stereo), for which the GI50 in data set [1] was 0.218 µM; in [4], 1.01 µM. Besides, the Drug uptake entry in data set [2] is “Active”. In [5], the IC50 was 0.54 µM. Also, the “fold change (FC)” value in data set [3] is 25.
`C/C=C/C[C@H](C)[C@@H](OC)[C@@H](C)[C@H](O)C[C@H]1OC(=O)C=C[C@H]1CC` [PIRONETIN]: the GI50 in data set [1] was 0.0222 µM; in [4] it was 0.0223 µM. The fraction unbound was 0.07 in data set [6], 0.13 in [12] and 0.02 in data set [18]. In addition, the remaining at 24 h in [7] was determined as 56%; in [8], 35%; in data set [10], 50%. Further, the “inhibition (INH)” value in [9], in [11], in data set [14] and in [17] was “Active” throughout. The IC50 in [5] is 0.026 µM. Moreover, the t1/2 in data set [13] is less than 15 min; in data set [15], less than 15 min; in [16], 7 min.
